Laboratory results reported in publication PMC10757563 (Nature chemical biology, 2023).

Test system: ribosome
Assay: Toeprinting analysis of ribosome arrest during in vitro translation
Assay type: biochemical
Conditions: model yrbA-fs15 ORF with UAG stop codon; 50 μM

Compound: C=C[C@]1(C)C[C@@H](OC(=O)CS[C@@H]2C[C@H]3CC[C@@H](C2)N3C)[C@]2(C)[C@H](C)CC[C@]3(CCC(=O)[C@H]32)[C@@H](C)[C@@H]1O [retapamulin]
- ribosome arrest site (toeprint): ribosomes arrested at the start codon
